These results are taken from PMC11330772, “Unveiling the kinetic versatility of aryl-alcohol oxidases with different electron acceptors” (Frontiers in Bioengineering and Biotechnology, 2024).

For series [1], the target named is T1, BaAAO (Bjerkandera adusta, UniProt A0ABF7PQ87).
The target of series [2] is T2, PeAAO (Pleurotus eryngii, UniProt O94219).
Series [3] concerns the target T1, BaAAO. Briefly: Stopped-flow reductive half-reaction (flavin reduction by alcohol). It counts as biochemical. To be noted: anaerobic, 50 mM sodium phosphate, pH 6.0, 25 °C. Here is the method: (§1) Studies on the reductive half-reaction were performed by mixing AAO (∼10 μM, final concentration) with increasing concentrations of alcohols under anaerobic conditions. Observed rate constants (k obs) were calculated using global analysis and numerical integration methods, simultaneously utilizing all spectral data in the 400–800 nm region along time evolution using the ProKineticist software from Applied Photophysics.

For series [4], the target named is T2, PeAAO. The description is as above. It counts as biochemical. Here is the method:
as §1

The target of series [5] is T1, BaAAO. Briefly: Steady-state bi-substrate kinetics of alcohol oxidation. In kind it is biochemical. The protocol:
(§2) Bi-substrate kinetics were analyzed by concurrently varying the concentration of the aforementioned alcohols and electron acceptors. Oxygen assays were carried out in a screw-cap cuvette where the alcohol was equilibrated with the desired concentration of O2 by bubbling with the appropriate O2/N2 gas mixture (4%, 10%, 21%, 44%, and 100% O2) for 10 min. Alcohol oxidation was initiated by the addition of the enzyme and followed at 285 nm for 4-methoxybenzaldehyde production and 295 nm in the case of 3-Cl-4-methoxybenzaldehyde (Δε285 = 16,950 M^−1cm^−1 and Δε295 = 15,000 M^−1cm^−1, respectively) ([Ferreira et al., 2005]). […]. BQ solutions were prepared immediately prior to use and protected from the light to avoid photodegradation.
(§3) The initial rates for bi-substrate kinetics were fitted to Eq. 1 or Eq. 2, which describe sequential and ping-pong kinetic mechanisms, respectively. […]

In series [6] the target is T2, PeAAO. Described as above. In kind it is biochemical. The protocol:
as §2, §3

Series [7] has as its target T1, BaAAO. Nature of the series: Redox state of the enzyme during turnover (stopped-flow). In kind it is biochemical. To be noted: in the presence of O2 (air), saturating alcohol, pH 6.0, 25 °C.
Series [8] deals with T2, PeAAO. On the set-up: method as in Carro et al. (2018a). To be noted: pH 6.0, 12 °C, ref Carro et al. (2018a), cited from earlier work.
Series [9] has as its target T1, BaAAO. Nature of the series: biochemical.
The target in series [10] is T1, BaAAO. On the set-up: method as in Ferreira et al. (2023). To be noted: alcohol substrate 4-methoxybenzyl alcohol, 50 mM phosphate, pH 6.0, 25 °C, ref Ferreira et al. (2023); cited from earlier work.
Series [11] deals with T2, PeAAO. Nature of the series: Stopped-flow oxidative half-reaction (flavin reoxidation by O2 or BQ). To be noted: PeAAO.
In series [12] the target is T2, PeAAO. The arrangement: method as in Ferreira et al. (2023). To be noted: alcohol substrate 4-methoxybenzyl alcohol, 50 mM phosphate, pH 6.0, 25 °C, ref Ferreira et al. (2023); cited from earlier work.
The target in series [13] is T2, PeAAO. To be noted: pH 6.0, 12 °C, cited from earlier work.
Substrate in series [14]: O=C1C=CC(=O)C=C1
Briefly: Steady-state bi-substrate kinetics of alcohol oxidation. In kind it is biochemical, Bjerkandera adusta. To be noted: other: BaAAO, alcohol substrate 3-Cl-4-methoxybenzyl alcohol, 50 mM phosphate, pH 6.0, 25 °C. The protocol: as §2, §3

Substrate in series [15]: COc1ccc(CO)cc1Cl
The series is described as above. It counts as biochemical, Bjerkandera adusta. To be noted: other: BaAAO, 50 mM phosphate, pH 6.0, 25 °C. Here is the method: as §2, §3

[16] abbreviates: 50 mM sodium phosphate, pH 6.0, 12 °C.
[17] abbreviates: anaerobic, 50 mM sodium phosphate, pH 6.0, 25 °C.
Where [18] appears, read: BaAAO, alcohol substrate 3-Cl-4-methoxybenzyl alcohol, 50 mM phosphate, pH 6.0, 25 °C.
[19] abbreviates: alcohol substrate 3-Cl-4-methoxybenzyl alcohol, 50 mM phosphate, pH 6.0, 25 °C.

As a reminder, the Km is the concentration of substrate that gives half-maximal velocity. As a reminder, the kcat is the maximal rate divided by the concentration of active sites. For orientation: kcat/Km means the turnover number divided by the Michaelis constant.

Like-named read-outs stand apart in the source and are kept apart here. A value given as a limit tells only on which side of the number the result lay.

T2 sequence (O94219 entry or part of it): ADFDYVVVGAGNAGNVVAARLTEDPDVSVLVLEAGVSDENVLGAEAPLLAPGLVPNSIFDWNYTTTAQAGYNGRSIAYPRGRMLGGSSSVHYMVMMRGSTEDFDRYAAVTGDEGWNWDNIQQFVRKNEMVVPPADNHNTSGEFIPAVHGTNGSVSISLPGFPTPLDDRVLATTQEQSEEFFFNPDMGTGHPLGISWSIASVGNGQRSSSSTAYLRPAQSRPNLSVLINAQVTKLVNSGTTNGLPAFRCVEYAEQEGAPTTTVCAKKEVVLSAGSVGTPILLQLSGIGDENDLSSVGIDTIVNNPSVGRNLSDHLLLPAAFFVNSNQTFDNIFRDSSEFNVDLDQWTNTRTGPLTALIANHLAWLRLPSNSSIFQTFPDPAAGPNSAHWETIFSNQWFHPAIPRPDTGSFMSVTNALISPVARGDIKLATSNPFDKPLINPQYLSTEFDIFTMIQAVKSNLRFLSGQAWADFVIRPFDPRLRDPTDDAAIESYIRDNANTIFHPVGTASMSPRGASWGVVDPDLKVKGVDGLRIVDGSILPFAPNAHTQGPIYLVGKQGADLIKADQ

Regarding `COc1ccc(C(=O)O)cc1Cl` [3-Cl-4-methoxybenzoic acid], the k off at BaAAO [1] (setting [16]) was 13 ± 1 s⁻¹; at PeAAO [2] (50 mM sodium phosphate, pH 6.0, 12 °C, nd = not detected), “no dissociation”. Also, the k on at BaAAO [1] (setting [16]) is 47000 ± 2000 M⁻¹ s⁻¹; on PeAAO [2] (setting [16]), 37000 ± 1000 M⁻¹ s⁻¹. The Kd on BaAAO [1] (read-out: K d(acid), K d = k off/k on, pH 6.0, 12 °C) came to 276 ± 38 µM.

With `COc1ccc(CO)cc1Cl` [3-Cl-4-methoxybenzyl, 3-chloro-4-methoxybenzyl alcohol], the k red at BaAAO [3] came out at 121 ± 11 s⁻¹; on PeAAO [4] (setting [17]) it was 96 ± 3 s⁻¹. The “k red/K d(alcohol)” value on BaAAO [3] is 404000 ± 127000 M⁻¹ s⁻¹; on PeAAO [4] (setting [17]), 4,486 ± 725 s^−1mM^-1. For the same molecule, the Kd at BaAAO [3] (read-out: K d(alcohol)) was found to be 300 ± 91 µM; at PeAAO [4] (anaerobic, 50 mM sodium phosphate, pH 6.0, 25 °C, read-out: K d(alcohol)), 21 ± 3 µM. The “k red higher than k cat” value on PeAAO [4] (turnover with BQ) was determined as 4 fold; on PeAAO [4] (turnover with O2), 2 fold. Also, the “turnover of BaAAO higher than PeAAO” value at BaAAO [5] (O2 as electron acceptor) amounted to 2 fold. The “k cat lower than for the other substrate (4-methoxybenzyl alcohol)” value at PeAAO [6] is listed as 4 fold. The “reduced form of the enzyme during turnover” value on BaAAO [7] was at most 60%.

Regarding `COc1ccc(C(=O)O)cc1` [4-Methoxybenzoic acid, 4-methoxybenzoic acid], the k off on PeAAO [8] (50 mM sodium phosphate) was 3 ± 1 s⁻¹; at BaAAO [9] (pH 6) it was 18 ± 2 s⁻¹. For the same molecule, the k on is 18000 ± 1000 M⁻¹ s⁻¹ at PeAAO [8] (50 mM sodium phosphate) and 10000 ± 1000 M⁻¹ s⁻¹ on BaAAO [9] (pH 6). The Kd was 149 ± 10 µM on PeAAO [8] (K d = k off/k on, read-out: K d(acid)) and 1810 ± 197 µM at BaAAO [9]. In addition, the results for the “k on slower than that of 3-Cl-4-methoxybenzoic acid” value on BaAAO [1] and on PeAAO [2] were around 5 fold and “approximately 2 fold”, respectively.

On to `O=O` [O2], for which the “K m(acceptor)” value at BaAAO [5] (setting [18]) is 225 ± 8 µM; on PeAAO [6] (setting [19]), 67 ± 2 µM; on BaAAO [10], 134 ± 5 µM; at PeAAO [12], 176 ± 1 µM. Further, the “k cat/K m(acceptor)” value at BaAAO [5] (setting [18]) is 312000 ± 12000 M⁻¹ s⁻¹; at PeAAO [6] (setting [19]), 647000 ± 22000 M⁻¹ s⁻¹; at BaAAO [10] it was 549000 ± 23000 M⁻¹ s⁻¹; at PeAAO [12] it was 1,139 ± 35 s^−1mM^−1. Besides, at PeAAO [11], the “reverse rate constant (k rev), y-axis intercept of reoxidation” value amounted to 17 s⁻¹. Further, the “k ox(O2)” value on PeAAO [13] (PeAAO reduced by 3-Cl-4-methoxybenzyl alcohol, ref Ferreira et al. (2015)) is 790 ± 20 ^b s^−1mM^−1; on PeAAO [13] (PeAAO reduced by 4-methoxybenzyl alcohol, ref Carro et al. (2018a)) it was 770 ± 40 ^a s^−1mM^−1.

B1: BaAAO (Bjerkandera adusta) (protein)
chain: MVTFFTDASQLPATVYDFIVVGAGNAGNVVAARLTEDWKTTVLLIEAGISHEGIDSVAVPGLVLDNLPFSPVMWNYTTVPQAALDNRPIPYAKGRVVGGSSSVNFMEYTRSSNTEYDRWANLTGDAGWSWKNMEQYYLKNSRLVPPQDGHNTTGDVDPSVHGYGPVPLSLVGTPNPLDARMRAATQAPGAEFPFQLDMNGGDMIGFGIVQSTILNGERMHSGKAFLEPAMSRPNLHVLIENTVTRLIQTKTTNGLPSFMKVEFARDALSARSVVTATKEVVLSAGSIGTPQILMLSGIGDREELTAIGVNVTVDNPAVGKHLKDHPIMANYFQVNSNETYDDIFRDRDVSNTFLAQWKQNRTGPMVASPSTGLGFFRLPDNDTIFERFADPSPGEGAGHIELILSNQWTPEVQIPPATGSFLTVHAVVVSPASEGTVRLNSTNPFEFPLLDPQLLSSEFDQHTIIHAARLARQFVSSSPWADFVESRTGIIGDTDDDEADLLAAARQATVTIWHPMCTARMAPKGSTDGAIDPDLLVKGVSGLRVIDGAALPAIPATHPMAAIYLLAERGSDLIKQKWKL
Turning to B1, the Michaelis-Menten constant (Km) in series [14] came to 66 ± 12 µM. Moreover, in [15] (BQ as e− acceptor (anaerobic)), the Km came out at 26 ± 4 µM, the turnover number (kcat) turned out to be 23 ± 1 s⁻¹ and the kcat/Km is 910000 ± 146000 M⁻¹ s⁻¹. In [15] (O2 as e− acceptor), the Km stood at 94 ± 4 µM, the kcat stood at 70 ± 1 s⁻¹ and the catalytic efficiency (kcat/Km) was 747000 ± 32000 M⁻¹ s⁻¹.
